Results as given in a melting point compilation (Tetko et al.; mined from patent text by program, amines drawn as free bases though some values may be those of a salt).

melting point [°C]	Structure (SMILES)
181 to 182	CC1(C)OC(=O)Nc2ccc(-c3ccccc3Cl)cc21
255 to 256	CCc1ccc2c(=O)c(C(N)=O)cn(C)c2c1
174 to 175	CN1C(=O)N(CC(COc2ccc(-c3ccc(S(C)(=O)=O)cc3)cc2)N(O)C=O)C(=O)C1(C)C (stereo unspecified)
148	O=Cc1c(Br)nc(-c2ccccc2)n1Cc1cc2c(cc1Cl)OCO2
69 to 71	CCCCCCCN1C(=O)C2CC(c3ccc(N)cc3)(C2)C1=O
312 to 314	CC(=O)c1nc(C)cn1-c1cc(C)c2[nH]c(=O)ccc2c1
220 to 221	NC(=O)Cn1cc(-c2ccccc2)c2cc(Cl)ccc21
143 to 144	CN(C)C(N)=Nc1ccccc1N1CCOCC1
200 to 202	CCOC(=O)c1cc2c(C(F)(F)F)cc(OCC(=O)O)cc2n1C
199 to 201	CCCc1n[nH]c2c(=O)[nH]c(-c3ccccc3OCC)nc12
67 to 68	C#CCCCCOc1ccc(C=O)cc1OC
172 to 173	Cc1cc2c(c3c1NC(=O)CC3)OC(CO)C2 (stereo unspecified)
228	COc1ccc(-c2nc(C(F)(F)F)c(Br)[nH]2)cc1Cl
131 to 133	COc1ccc(C2=C(CC(C)N)C(=O)NCCC2)cc1 (stereo unspecified)
219 to 221	CON(C)Cc1nc2c(N)nc3ccccc3c2n1CC1(O)CCC1
91	CCC1Oc2ccc(Br)cc2N(CC(O)CO)C1=O (stereo unspecified)
76 to 81	COC(=O)c1cc(S(C)(=O)=O)ccc1OCC(C)C
162	CCn1nc(-c2ccc(OC)cc2)c(-c2ccc(OC)c(F)c2)cc1=O

melting point [°C]	Structure (SMILES)
133 to 134	COc1cccc(CN2Cc3cc(OC)c(O)cc3C(OC)C2)c1 (stereo unspecified)
65	CCOP(=O)(Cc1cc(C)c(O)c(C)c1)OCC
70 to 73	NC(=O)c1ccc(CCCCCCN2CCOCC2)cc1O
59 to 60	CCOC1OC(C(O)CO)C(O)C1O (stereo unspecified)
49	CCC1COC(c2ccc(C#N)c(F)c2)OC1 (stereo unspecified)
174	CCCS(=O)(=O)c1cccc(-c2nc(=O)c3ccccc3s2)n1
160 to 162	CCC1CCC(=O)C=C1c1ccc(OC(CC)C(=O)O)c(Cl)c1Cl (stereo unspecified)
134 to 137	O=C1C2CCCC2=Nc2ccccc2N1Cc1ccc(F)cc1 (stereo unspecified)
74 to 76	CCOC(=O)CCCCn1c(C)cn(N=Cc2cccnc2)c1=O
262 to 264	CC1COCc2nc3c(N)nc4ccc(O)cc4c3n21 (stereo unspecified)
65 to 66	O=C(CCCCC1CCSS1)N1CCc2ccccc21 (stereo unspecified)
274 to 276	COc1cccc2nc(C)n(C3CCC(=O)NC3=O)c(=O)c12 (stereo unspecified)
80 to 89	CC(C)NC(=O)N1C2=NC(C)(C)N(C(C)C)C(=O)N2c2ccccc21
178	Cc1nn(C)c(C(=O)C(C#N)c2ccc(C(C)(C)C)cc2)c1C (stereo unspecified)
74	CCOC(=O)c1ccc(N(N)C(=O)OC(C)(C)C)cc1
< 80	Cn1c(=O)oc2cc(CCCN3CCOCC3)cnc21
117 to 120	COC(=O)c1ccc(Cl)cc1NC(=O)CSc1nc2ccccc2s1

Further lines, the compound ahead of its results:

Structure (SMILES)	melting point [°C]
CSc1ccc(C2=C(c3cccc(F)c3)C(=O)C(C)(C)O2)cc1	106
COC(=O)C(C)Oc1ccc(N(C)c2nc3cc(Cl)ccc3s2)cc1 (stereo unspecified)	120
CC(C)(C)CNCc1nc(-c2ccc3c(c2)Nc2ccccc2S3)cs1	172 to 174
COc1ccc(-n2cnc3c(-c4ccc(C(F)(F)F)cc4F)ncnc32)cc1	181 to 183
O=C1c2c(O)ccc(O)c2C(=O)c2c(NCCN3CCCC3CO)ccc(NCCN3CCCC3CO)c21 (stereo unspecified)	202 to 204
c1ccc(-c2cccc3[nH]c4c(c23)CCNCC4)cc1	> 250
O=C(OCC12CCCN(CC1)C2)c1c[nH]c2ccccc12 (stereo unspecified)	184 to 185
O=C(CBr)CCc1ccccc1	39 to 40
FC(F)(F)c1cc(Cl)c2nc(N3CCN(c4ncccc4C(F)(F)F)CC3)[nH]c2c1	204
ClCCCC1(c2ccccc2)OCCO1	54 to 55.5
Cc1c(C(=O)O)ncc2[nH]c3ccc(C4CC=CCC4)cc3c12 (stereo unspecified)	284 to 285
C/C(=C/c1ccc(C(=O)O)cc1)c1cc2c(cc1C)CCC(C)(C)CC2	223 to 225
CC(=O)c1cc(Br)c(OP(=O)(O)O)c(Br)c1	149 to 154
CCc1ncnc(NC2CCC3(CC2)OCC(CO)O3)c1Cl (stereo unspecified)	97 to 98
CS(=O)(=O)c1ccc(C2=C(c3ccc4c(c3)OCO4)CCC2)cc1	140 to 141
Cc1ccccc1-c1cc(N2CCS(=O)(=O)CC2)ncc1N(C)C(=O)C(C)(C)c1cc(C(F)(F)F)cc(C(F)(F)F)c1	200 to 201
Nc1c(OCCNCc2ccccc2)cccc1[N+](=O)[O-]	33 to 60
Cn1cc(-c2ccccc2[N+](=O)[O-])cn1	41 to 44
COC1NC(=O)CC2CC1c1ccccc12 (stereo unspecified)	205 to 207
O=Cc1c(O)c(Cl)cc(Cl)c1F	58 to 62
FC(F)(F)c1ccc2sc(CCl)nc2c1	52
CC1Cc2c(N3CCCC(O)C3)c(F)cc3c(=O)c(C(=O)O)cn1c23 (stereo unspecified)	251 to 253
CC(=O)On1c(C(F)(F)F)nc2ncc(Cl)cc21	103
COc1nsc(SCOCC#CI)c1C#N	124 to 125

Structure (SMILES)	melting point [°C]
Cc1ccccc1CC(=NC#N)NC(NC(=O)Cc1ccccc1)C(C)(C)C (stereo unspecified)	182 to 183
CC(C)(Cc1ccccc1)C(NC(=O)CCc1ccccc1)Nc1c(Nc2cccnc2)c(=O)c1=O (stereo unspecified)	221 to 223
Nc1c(-c2ccc(C(F)(F)F)cc2F)nnn1-c1ccc(O)cc1	176 to 178
CN(C)CCN(C)c1ccc2nnc(-c3cnc([N+](=O)[O-])n3C)n2n1	196 to 198
Cc1cc(C(=O)Nc2cc(Oc3ccc4nc(NC(=O)C5CC5)cn4n3)ccc2C)n(C)n1	223
CCOC(=O)Nc1ccc(C23CC4CC(CC(C4)C2)C3)cc1	132 to 134
N#CN(Cc1ccccc1)C(=O)CCCC(=O)N(C#N)Cc1ccccc1	97.5 to 100
Nc1nc(N)nc(-c2ccc(Oc3ccccc3)cc2)n1	198 to 200
Brc1ncnn1C(c1ccccc1)(c1ccccc1)c1ccccc1	239 to 241
COC(=O)C1CCCCN1S(N)(=O)=O (stereo unspecified)	72 to 74
O=P(O)(O)C(F)(F)c1ccc(CN(c2ccc(Cl)c(Cl)c2)c2nnc(-c3cccc(Oc4cccc(-c5nnn[nH]5)c4)c3)s2)cc1Br	232 to 235
O=C(CCNC(=O)NOCCCl)NCC1CC1	105 to 106
CN(c1cccc2cc(C3=NCC(CC(=O)O)S3)[nH]c12)S(=O)(=O)c1nccs1 (stereo unspecified)	121 to 123
Cc1cc(C)n2nc(OC(=S)N(C)C)cc2n1	216 to 217
Cc1c(C(=O)c2ccccc2)ccc(O)c1CC(=O)O	212
Brc1ccc(N2CCN(CCCOc3ccc(C4=NCCO4)cc3)CC2)nn1	169
Clc1ccc(-c2n[nH]c3cc4ccccc4cc23)cc1	192
NS(=O)(=O)Oc1ccc(Cl)cc1	103 to 104
COc1ccc(NC(=S)NC(NC(=O)c2ccc(C)cc2)C(F)(F)F)cc1 (stereo unspecified)	193 to 194
Cc1cc(C)n2nc(S(=O)(=O)Nc3ccccc3Cl)nc2n1	188 to 190
O=C1c2ccccc2C(=O)N1CC(=O)N1c2ccccc2N(Cc2ccc(Cl)cc2)C(=O)[C@H]2CCC[C@H]21 (relative stereo)	205 to 206
O=C1c2ccc(NC(=O)C3CCCC3)cc2C(=O)c2cc(NC(=O)C3CCCC3)ccc21	281
COC(=O)c1ccc(S(C)(=O)=O)c(-c2nccs2)c1Cl	135 to 138
COc1ccc(-c2nc(-c3ccccc3)c3ncc(Cl)cc3n2)cc1	193 to 194

Structure (SMILES)	melting point [°C]
O=C1NCCC[C@@H]1NS(=O)(=O)c1ccc(F)cc1	153 to 156
COc1nc(NC(=O)NS(=O)(=O)c2ccccc2OC(F)F)nc(OCC(F)(F)F)n1	155 to 157
Cc1c(-c2ccccc2Cl)n(-c2ccccc2)c(-c2ccccc2F)cc1=O	182 to 183
O=C1CCCC2=C1C(c1ccc(F)cc1O)C1=C(CCS1)N2 (stereo unspecified)	> 250
CC(C)(C=O)Cc1cc(C(C)(C)C)c(O)c(C(C)(C)C)c1	72 to 74
COc1cc(OC)cc(-c2ncn(-c3cc(OC)c(OC)c(OC)c3)c2-c2ccc(OC)c(O)c2)c1	110 to 111
C[Si](C)(C)c1ccc(-c2ccc(I)cc2F)c(F)c1F	76
N#Cc1ccc(Oc2ccc(CBr)cc2)cc1C#N	101 to 102
N#CCCNC(=O)c1cccc(-c2cccc3sc(Cc4cccc(C(F)(F)F)c4)cc23)c1	137 to 138
C[C@@H](OS(C)(=O)=O)C(=O)N1C(=O)N(C)C[C@H]1C(=O)OC(C)(C)C	97 to 100
FC(F)(F)CNC(=S)NCc1ccc(C(F)(F)F)cc1	80 to 82
CCOC(=O)C1=C(C)Nc2nc(N3CCOCC3)nc(N3CCOCC3)c2C1c1ccccc1Cl (stereo unspecified)	241
CC(C)(C)OC(=O)N[C@H](Cc1ccc(Cl)c(Cl)c1)C(=O)N1CCC[C@H]1C(=O)NCC1CCc2nc(N)ncc2C1 (stereo partly specified)	110 to 113
COc1ccc([N+](=O)[O-])c(C2OCCO2)c1OC	74 to 76
CC(=O)c1c(C)c(C#N)c2nc(C3CC3)oc2c1N1CC[C@H](N(C)C)C1	142
CCCC/C=C\CCCCCCCC(=O)Nc1nc(CC(=O)O)cs1	110 to 111
O=c1ccc2cnccc2[nH]1	295 to 297
Nc1ccc(S(N)(=O)=O)c2c1CCCC2	216 to 219
CC(CC(C)C1CCC2C3C(O)CC4CC(O)CCC4(C)C3CCC12C)C(=O)O (stereo unspecified)	125 to 127
Cc1cc(C2=NOC(O)(C(F)(F)F)C2Cl)c(F)cc1Cl (stereo unspecified)	90 to 91
CN(C(=O)c1ccccn1)c1cccc(F)c1	75 to 78
Cc1cccc(C(=O)C(C)(C)C(C)(C)[N+](=O)[O-])c1	50 to 51
COC(=O)c1c(CC(C)C)nc2ccc(Cl)cc2c1-c1ccccc1	111 to 112
